Test results: patent US7208517B1, “Endothelin antagonists” (Abbott Labortories, priority 1994, dated 2007)

How the values were obtained:
[1] = molecular target: T1, ETA receptor in MMQ cells (rET-A) (Rattus norvegicus, UniProt P26684); test: ETA/ETB selectivity: (125I)ET-1 competition binding, ETA assay in MMQ cell membranes (rET-A); settings: MMQ cell membranes; 0.1 nM (125I)ET-1; read-out: rET-A IC50
T1 construct: endogenous in cells; host or cells: MMQ rat pituitary cells (membranes)
T1 sequence (P26684 21-426): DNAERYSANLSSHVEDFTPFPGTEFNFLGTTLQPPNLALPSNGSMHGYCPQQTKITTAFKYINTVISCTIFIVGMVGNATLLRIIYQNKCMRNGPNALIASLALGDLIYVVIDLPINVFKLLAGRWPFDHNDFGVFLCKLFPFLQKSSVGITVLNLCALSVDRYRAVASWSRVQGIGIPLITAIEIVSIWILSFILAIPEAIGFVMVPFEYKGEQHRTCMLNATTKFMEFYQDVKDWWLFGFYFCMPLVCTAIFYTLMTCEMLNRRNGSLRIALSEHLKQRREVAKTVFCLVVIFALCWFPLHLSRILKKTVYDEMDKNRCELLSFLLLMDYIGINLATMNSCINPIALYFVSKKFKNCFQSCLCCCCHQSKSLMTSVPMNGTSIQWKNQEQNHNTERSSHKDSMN

human ETA receptor = molecular target: T2, human ETA receptor (Homo sapiens, UniProt P25101); test: ETA/ETB selectivity: (125I)ET-1 competition binding, CHO cells transfected with human ETA receptor (hET-A); settings: CHO cells transfected with human ETA receptor; 0.1 nM (125I)ET-1; read-out: hET-A IC50
T2 construct: expressed in transfected cells; host or cells: CHO cells, permanently transfected
T2 sequence (P25101 21-427): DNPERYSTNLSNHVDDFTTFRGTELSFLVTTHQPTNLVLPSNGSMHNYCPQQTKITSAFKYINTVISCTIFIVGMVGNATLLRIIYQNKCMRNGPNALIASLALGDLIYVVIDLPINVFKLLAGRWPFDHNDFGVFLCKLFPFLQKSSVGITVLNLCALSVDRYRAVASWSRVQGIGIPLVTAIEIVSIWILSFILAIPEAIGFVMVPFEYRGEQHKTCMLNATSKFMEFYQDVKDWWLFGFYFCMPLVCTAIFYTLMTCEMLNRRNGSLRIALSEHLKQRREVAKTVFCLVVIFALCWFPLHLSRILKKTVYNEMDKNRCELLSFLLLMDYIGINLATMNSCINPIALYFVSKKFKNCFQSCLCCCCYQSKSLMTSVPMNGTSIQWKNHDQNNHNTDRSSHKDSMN
Description: The mixture was centrifuged at 1000×g for 10 min. The supernatant was collected and centrifuged at 60,000×g for 60 min. The precipitate was resuspended in 20 mM Tris, pH 7.4 containing protease inhibitor and centrifuged again. The final membrane pellet was resuspended in 20 mM Tris, pH 7.4 containing protease inhibitors and stored at −80° C. until used. Protein content was determined by the Bio-Rad dye-binding protein assay.
Binding assays were performed in 96-well microtiter plates pretreated with 0.1% BSA. […] After incubation, unbound ligands were separated from bound ligands by a vacuum filtration method using glass-fiber filter strips in PHD cell harvesters (Cambridge Technology, Inc., MA), washing the filter strips three times with saline (1 mL). Nonspecific binding was determined in the presence of 1 μM ET-1. IC50 values are calculated using an average of at least two separate determinations.

human ETB receptor = molecular target: T3, human ETB receptor (Homo sapiens, UniProt P24530); test: ETA/ETB selectivity: (125I)ET-3 competition binding, CHO cells transfected with human ETB receptor (hET-B); settings: CHO cells transfected with human ETB receptor; 0.1 nM (125I)ET-3; read-out: hET-B IC50
T3 construct: expressed in transfected cells; host or cells: CHO cells, permanently transfected
T3 sequence (P24530 27-442): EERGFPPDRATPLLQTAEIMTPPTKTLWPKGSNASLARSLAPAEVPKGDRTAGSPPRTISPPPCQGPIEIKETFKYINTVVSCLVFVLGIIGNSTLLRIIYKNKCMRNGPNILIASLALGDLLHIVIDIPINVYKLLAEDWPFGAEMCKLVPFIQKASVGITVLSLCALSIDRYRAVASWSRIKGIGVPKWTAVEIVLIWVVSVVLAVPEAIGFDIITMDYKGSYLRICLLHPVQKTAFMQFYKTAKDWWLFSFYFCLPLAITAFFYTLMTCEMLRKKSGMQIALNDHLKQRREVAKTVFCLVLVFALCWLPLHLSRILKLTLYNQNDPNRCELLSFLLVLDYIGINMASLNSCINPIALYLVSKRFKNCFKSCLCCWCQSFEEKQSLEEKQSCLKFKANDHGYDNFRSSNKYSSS
Description: MMQ cells, porcine cerebellar tissues (known to contain ETB receptors) and chinese hamster ovary cells (CHO) permanently transfected with the human ETA or ETB receptor were homogenized in 25 ml of 10 mM Hepes (pH 7.4) containing 0.25 M sucrose and a protease inhibitor [50 mM EDTA, 0.1 mM PMSF, 5 μg/ml Pepstatin A, and 0.025% Bacitracin] using a micro ultrasonic cell disrupter. The mixture was centrifuged at 1000×g for 10 min. The supernatant was collected and centrifuged at 60,000×g for 60 min. The precipitate was resuspended in 20 mM Tris, pH 7.4 containing protease inhibitor and centrifuged again. The final membrane pellet was resuspended in 20 mM Tris, pH 7.4 containing protease inhibitors and stored at −80° C. until used. Protein content was determined by the Bio-Rad dye-binding protein assay.
Binding assays were performed in 96-well microtiter plates pretreated with 0.1% BSA. Membranes prepared from cells were diluted 100 fold in Buffer B (20 mM Tris, 100 mM NaCl, 10 mM MgCl2, pH 7.4, with 0.2% BSA, 0.1 mM PMSF, 5 μg/mL Pepstatin A, 0.025% bacitracin, and 50 mM EDTA) to a final concentration of 0.2 mg/mL of protein. In competition binding studies, membranes (0.02 mg) were incubated with 0.1 nM of (^125I)ET-1 (for ETA assay in MMQ or CHO cells transfected with human ETA receptor) or (^125I)ET-3 (for ETB assay in porcine cerebellum or CHO cells transfected with human ETB receptor) in Buffer B (final volume: 0.2 mL) in the presence of increasing concentrations of the test compound for 3 hours at 25° C. After incubation, unbound ligands were separated from bound ligands by a vacuum filtration method using glass-fiber filter strips in PHD cell harvesters (Cambridge Technology, Inc., MA), washing the filter strips three times with saline (1 mL). Nonspecific binding was determined in the presence of 1 μM ET-1. IC50 values are calculated using an average of at least two separate determinations.

| SMILES | IC50 [1] | IC50 (human ETA receptor) | IC50 (human ETB receptor) |
| --- | --- | --- | --- |
| CCCCN(CCCC)C(=O)CN1C[C@H](c2ccc3c(c2)OCO3)[C@@H](C(=O)O)[C@@H]1CC(C)(C)CCC [compound 537] | 0.96 nM | 0.23 nM | 1900 nM |
| CCCC(CCC)N(C(=O)CN1CC(c2cc(OC)c3c(c2)OCO3)C(C(=O)O)C1CCC1OCCO1)c1ccc(F)c(C)c1 (stereo not drawn) [compound 513] | 0.3 nM | 0.36 nM | 14000 nM |
| CCCCN(CCCC)C(=O)CN1CC(c2ccc3c(c2)OCO3)C(C(=O)O)C1CC(C)(C)C=C(C)C (stereo not drawn) [compound 506] | 3.2 nM | 3 nM | 61000 nM |
| CCCCN(CCCC)C(=O)CN1CC(c2ccc3c(c2)OCO3)C(C(=O)O)C1CC(C)(C)C1OCCO1 (stereo not drawn) [compound 507] | 3 nM | 1.63 nM | > 100000 nM |
| CCCCN(CCCC)C(=O)CN1CC(c2ccc3c(c2)OCO3)C(C(=O)O)C1CCc1ccccc1OC (stereo not drawn) [compound 517] | 1 nM | 0.43 nM | 12000 nM |
| CCCCN(CCCC)C(=O)CN1CC(c2ccc3c(c2)OCO3)C(C(=O)O)C1CCC1CCCCO1 (stereo not drawn) [compound 505] | 2 nM | 5.7 nM | 68000 nM |
| CCCCN(CCCC)C(=O)CN1CC(c2ccc3c(c2)OCO3)C(C(=O)O)C1CC(C)(C)CCC (stereo not drawn) [compound 503] | 1.4 nM | 0.92 nM | 52000 nM |
| CCCCN(CCCC)C(=O)CN1CC(c2ccc3c(c2)OCO3)C(C(=O)O)C1CCC1OCCO1 (stereo not drawn) [compound 504] | 3.1 nM | 4.6 nM | > 100000 nM |
| CCCCN(CCCO)C(=O)CN1CC(c2ccc3c(c2)OCO3)C(C(=O)O)C1c1ccc(OC)cc1 (stereo not drawn) [compound 523] | 0.42 nM | 0.33 nM | 290 nM |
| CCCCN(C(=O)CN1CC(c2ccc3c(c2)OCO3)C(C(=O)O)C1c1ccc(OC)cc1)c1cccnc1 (stereo not drawn) [compound 531] | 1.2 nM | 0.71 nM | 870 nM |
| CCCCN(CCCC)C(=O)CN1CC(c2cc(OC)c3c(c2)OCO3)C(C(=O)O)C1CCC1OCCO1 (stereo not drawn) [compound 509] | 0.56 nM | 0.51 nM | 23000 nM |
| CCCCN(CCCC)C(=O)CN1C[C@H](c2ccc3c(c2)CCO3)[C@@H](C(=O)O)[C@@H]1CC(C)(C)CCC [compound 515] | 1.6 nM | 6.7 nM | > 100000 nM |
| CCCON(CCC)C(=O)CN1CC(c2ccc3c(c2)OCO3)C(C(=O)O)C1c1ccc(OC)cc1 (stereo not drawn) [compound 524] | 0.79 nM | 0.82 nM | 890 nM |
| CCCCN(CCCC)C(=O)CN1CC(c2ccc3c(c2)OCO3)C(C(=O)O)C1COc1ccccc1OC (stereo not drawn) [compound 510] | 0.5 nM | 1 nM | 11000 nM |
| CCCCN(CCCC)C(=O)CN1CC(c2cc(OC)c3c(c2)OCO3)C(C(=O)O)C1CC(C)(C)C1OCCO1 (stereo not drawn) [compound 516] | 0.71 nM | 1.8 nM | 37000 nM |
